# Assay results: patent US7070965B1, “Small molecule anticancer compounds and related production process” (priority 1998, dated 2006)
# What was measured:
# [1] = tested on: human gastric cancer cell line SGC7901; assay: MTT assay, inhibition of cell growth; type: cell-based; details: dissolved with 10% ethanol; for Inhibitory rate (%) on cell growth: 24 hours, listed as extracted iso-C15
# Method: (§1) MTT assay was performed to test the cytotoxicity. The K562 and SGC7901 cells were maintained in exponential growth in RPMI 1640 medium supplemented with 15% heat-inactivated newborn calf serum. The cells were plated at a density of 2×10^4 cells/100 μl medium/well into 96-well plate with medium containing samples in five final concentrations (7.5, 15, 30, 60 and 90 μg/ml) for iso-C15 (either synthesized or extracted) and one final concentration (30 μg/ml) for the others. The media in control wells contained no samples. The cells were incubated at 37° C. in a highly humidified incubator under 5% CO2 atmosphere for 24 hours. The supernatant was removed by fast inversion of the plate. 20 μl of 5 mg/ml MTT solution were added into each well. Incubation was continued for 4 hours. DMSO 100 μl/well was added and the plate was vibrated for 10 minutes. A570nm was read at the Immunoreader BioTek EL311S.
# (§2) The inhibition rate (%)=1−(mean A570nm in test wells/mean A570nm in control wells)
# [2] = tested on: Human leukemia cell line K562; assay: MTT assay, inhibition of cell growth; type: cell-based; details: for Inhibitory rate (%) on cell growth: 24 hours, dissolved with 10% ethanol, listed as extracted iso-C15
# Method: as §1, §2
# DU145 cancer cells = assay: In situ cell death detection, POD; type: cell-based, human; details: 60 μg/ml, 8 hours
# Text: In Situ Cell Death Detection Kit, POD (Mannheim Boehringer GmbH) was used to detect the individual apoptotic cells. Cleavage of genomic DNA during apoptosis may yield double-stranded, low molecular weight DNA fragments as well as single strand breaks in high molecular weight DNA. Those DNA strand breaks can be identified by labeling free 3′-OH termini with modified nucleotides in an enzymatic reaction. In this kit terminal deoxynucleotidyl transferase (TdT) is used to label free 3′-OH ends in genomic DNA with fluorescein-dUTP. The incorporated fluorescein is visualized under fluorescence microscope directly. The incorporated fluorescein can also bind to anti-fluorescein antibody POD and be detected by substrate reaction. Stained cells can be analyzed under light microscope.
# H1688, K-562 and DU145 human cancer cells and normal human PBLs were added with POD and incubated 30 min at 37° C., washed three times with PBS, then reacted with substrate AEC and incubated for 10 min at room temperature. The cells were analyzed under light microscope. […] It is evidenced that iso-C15 induces apoptosis of cancer cells but not normal human cells.
# [3] = tested on: normal human peripheral blood lymphocytes (PBL); assay: Cytotoxicity on normal cells, viability assessment; type: cell-based; details: at concentrations lethal to tumor cells
# Method: PBLs, K-562 and SNU-1 cells in suspension culture were seeded in 96-well microplates at a density of 5×10^4 cells/well for K-562 and SNU-1, and 1×10^5 cells/well for PBLs. iso-C15 were diluted with medium to provide different concentrations (0, 1.5, 3.0, 6.0, 15.0, 30.0, and 60.0 μg/ml). Both untreated and solvent (NaOH and Tween 80) treated cells served as controls. After incubation for 48 hours at 37° C., cells were collected directly from the wells for viability assessment.
# The ID50, ID75 and ID90 were determined in duplicate in every set of experiments, and each experiment was repeated three times under identical conditions. ID50, ID75 and ID90 were defined as the concentration of iso-C15 required to kill 50, 75 or 90%, respectively, of cells (compared with that in untreated cells) and computed using CalcuSyn for Windows software (Biosoft, Cambridge UK) based on Median Effect method by Dr. T. C. Chou.
# [4] = tested on: K562 human leukemia cells; assay: Western blot analysis of caspase target proteins Lamin B and RB; type: cell-based; details: 1% iso-C15 (60 μg/ml)
# Method: (§3) For Western blot assay, each cell pellet collected from 1% iso-C15 or control treated cultures was lysed in 150 μl lysis buffer with 0.5% NP-40, 0.5% deoxycholic acid and 1 mM PMSF. The cell lysates were mixed with equal volume 2× Laemmli buffer and boiled for 5 min before loaded into gel wells. Proteins were resolved in an 8% SDS-PAGE gel and transferred to nitrocellulose filter membrane. The filters were blocked with PBS-T (PBS with 0.1% Tween 20) containing 5% nonfat dry milk (Bio-Rad, Richmond, Calif.) for 1 hr and then incubated for 1 hr with proper dilution of one primary antibody in PBS-T containing 2% nonfat dry milk. The filters then were washed in PBS-T 5 min for 6 times and incubated with a 1:8000 dilution of HRP secondary antibody in PBS-T with 2% nonfat dry milk for 1 hr. After 6 washes in PBS-T, immune complexes were visualized on film using the ECL nonradioactive detection system (Amersham, Arlington Heights, Ill.). After detected with one primary antibody, the filter was striped with 0.1 mM Tris pH 7.5 and 0.05 mM β-metacapenanol at 50° C. for 30 min. The filters were washed in 300 ml PBS-T buffer for 10 min twice before blocking with PBS-T with 5% nonfat dry milk. The membranes were then reprobed with monoclonal mouse anti-human β-actin to determine the equal loading of protein for each well.
# (§4) The cleavages of Lamin B, a caspase target protein, in apoptotic SNU-423 human hepatocellular carcinoma cells and K562 human leukemia cells were shown in FIGS. 14 and 15, respectively. The cells were treated with 1% control solution and 1% iso-C15 for the length of time indicated. Cell lysates were separated by SDS-PAGE. Lamin B was detected by immunoblotting with a monoclonal antibody. […] The Western blot analysis of RB protein in SNU-423 and K562 cells were shown in FIGS. 16 and 17, respectively.
# [5] = tested on: SNU-423 human hepatocellular carcinoma cells; assay: as above; type: cell-based; details: 1% iso-C15 (60 μg/ml)
# Method: as §3, §4
compound,measurement,setting,value
"CC(C)CCCCCCCCCCCC(=O)O [iso-C15, 13-methyltetradecanoic acid]",Inhibitory rate (%) on cell growth,[1]; 15 μg/ml,28.1%
same,Inhibitory rate (%) on cell growth,[1]; 30 μg/ml,51.2%
same,Inhibitory rate (%) on cell growth,[1]; 60 μg/ml,62.1%
same,Inhibitory rate (%) on cell growth,[1]; 90 μg/ml,68.8%
same,inhibition at 15 µg/mL,"[1]; Homo sapiens, SGC-7901, 24 h, 15 μg/ml, read-out: Inhibitory rate (%) on cell growth",27.5%
same,inhibition at 30 µg/mL,"[1]; Homo sapiens, SGC-7901, 24 h, 30 μg/ml, read-out: Inhibitory rate (%) on cell growth",50.5%
same,inhibition at 60 µg/mL,"[1]; Homo sapiens, SGC-7901, 24 h, 60 μg/ml, read-out: Inhibitory rate (%) on cell growth",63.1%
same,inhibition at 90 µg/mL,"[1]; Homo sapiens, SGC-7901, 24 h, 90 μg/ml, read-out: Inhibitory rate (%) on cell growth",68.4%
same,Inhibitory rate (%) on cell growth,[2]; 7.5 μg/ml,27.1%
same,Inhibitory rate (%) on cell growth,[2]; 15 μg/ml,51.2%
same,Inhibitory rate (%) on cell growth,[2]; 30 μg/ml,72.2%
same,Inhibitory rate (%) on cell growth,[2]; 60 μg/ml,83.7%
same,Inhibitory rate (%) on cell growth,[2]; 90 μg/ml,87.2%
same,inhibition at 7.5 µg/mL,"[2]; Homo sapiens, K562, 24 h, read-out: Inhibitory rate (%) on cell growth, 7.5 μg/ml, dissolved with 10% ethanol",26.2%
same,inhibition at 15 µg/mL,"[2]; Homo sapiens, K562, 24 h, read-out: Inhibitory rate (%) on cell growth, 15 μg/ml, dissolved with 10% ethanol",50.1%
same,inhibition at 30 µg/mL,"[2]; Homo sapiens, K562, 24 h, read-out: Inhibitory rate (%) on cell growth, 30 μg/ml, dissolved with 10% ethanol",71.6%
same,inhibition at 60 µg/mL,"[2]; Homo sapiens, K562, 24 h, read-out: Inhibitory rate (%) on cell growth, 60 μg/ml, dissolved with 10% ethanol",83.1%
same,inhibition at 90 µg/mL,"[2]; Homo sapiens, K562, 24 h, read-out: Inhibitory rate (%) on cell growth, 90 μg/ml, dissolved with 10% ethanol",85.3%
same,"apoptotic cells stained, POD",DU145 cancer cells,Some stained apoptotic DU145 cancer cells were shown
same,toxicity against normal human peripheral blood lymphocytes,[3],not toxic against normal human peripheral blood lymphocytes
same,Lamin B cleavage,[4],cleaved 45 kDa products
same,RB hypophosphorylation and cleavage,[4],induced the change of hyperphosphorylated RB (pRB120/hyper) to hypophosphorylated form (pRB115/hypo)
same,Lamin B cleavage,[5],cleaved 45 kDa and 32 kDa products
same,RB hypophosphorylation and cleavage,[5],induced the change of hyperphosphorylated RB (pRB120/hyper) to hypophosphorylated form (pRB115/hypo)
